Test results published in patent US20060063736A1, “Compositions and methods for inhibiting mucin-type O-linked glycosylation” (priority 2004, published 2006).
Several values for one entry are separate records, joined by “and”; a condition that tells them apart may be missing. Equal values may be shown once. No end group written: not given here.

How the values were obtained:
mppGalNAcT-1 = target: T1, mppGalNAcT-1 (Mus musculus, UniProt O08912); test: ELLA for ppGalNAcTs, mppGalNAcT-1; format: biochemical, murine; settings: mppGalNAcT-1, ELLA validation
T1 construct: plasmids encoding truncated secreted ppGalNAcTs-1 to −5, -7, -10 and -11; made in house; host or cells: COS-7
T1 sequence (O08912 29-559 limits assumed): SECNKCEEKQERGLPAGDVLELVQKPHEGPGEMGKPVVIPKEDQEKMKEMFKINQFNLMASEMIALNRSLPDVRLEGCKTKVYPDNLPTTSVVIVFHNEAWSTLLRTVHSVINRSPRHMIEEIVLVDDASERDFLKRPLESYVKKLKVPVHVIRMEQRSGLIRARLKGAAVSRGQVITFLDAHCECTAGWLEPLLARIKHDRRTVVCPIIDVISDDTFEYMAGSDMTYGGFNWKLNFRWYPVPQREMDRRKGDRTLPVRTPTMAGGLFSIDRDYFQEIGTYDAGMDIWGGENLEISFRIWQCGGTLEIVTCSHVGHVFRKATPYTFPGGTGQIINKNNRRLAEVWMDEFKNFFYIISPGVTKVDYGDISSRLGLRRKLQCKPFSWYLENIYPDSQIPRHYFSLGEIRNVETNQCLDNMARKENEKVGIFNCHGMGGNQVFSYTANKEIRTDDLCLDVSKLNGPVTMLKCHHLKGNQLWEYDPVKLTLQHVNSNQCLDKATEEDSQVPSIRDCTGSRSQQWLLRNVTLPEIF
Description: COS-7 cells were transiently transfected with plasmids encoding truncated secreted ppGalNAcTs-1 to −5, -7, -10 and -11 as previously described. Hagen et al. (1997) J. Biol. Chem. 272:13843-13848. The crude conditioned medium was used as the enzyme source.
Standard reaction conditions for ppGalNAcT assays were as follows. The reaction mixture contained the following components in a final volume of 25 μL: 10 mM MnCl2, 40 mM sodium cacodylate, 40 mM β-mercaptoethanol, 0.1% Triton X-100, pH 6.5, 5 μL of conditioned media, and various concentrations of EA2 peptide 4, UDP-GalNAc and inhibitor. All uridine-based compounds were dissolved in dimethyl sulfoxide (DMSO). The concentration of DMSO in the reaction mixture was limited to 2% (v/v), as higher concentrations decreased ppGalNAcT activity. For inhibitor assays, reaction mixtures for positive controls also contained 2% DMSO. Unless otherwise stated, inhibitor assays were performed using 20 μM UDP-GalNAc and 50 μM EA2 peptide 4, the KM values for both substrates. Reactions were incubated at 37° C. and were terminated by the addition of 10 μL of 0.1 M EDTA. All experiments were performed in duplicate. Reaction rates were linear over the period monitored (20-30 min).
96-Well NeutrAvidin-coated plates were prewashed 3 times with 200 μL of wash buffer (25 mM Tris, 150 mM NaCl, 0.1% bovine serum albumin (BSA) (w/v), and 0.05% Tween (v/v), pH 7.2). Reactions were then transferred to the 96-well plates, incubated for 1 hour at room temperature (rt) and subsequently washed 3 times with 200 μL of phosphate-buffered saline (PBS) containing 0.5% BSA and 0.05% Tween, pH 7.1. A 100-μL solution of HPA-HRP in standard PBS buffer (1 μg/mL, pH 7.4) was added and the reaction was incubated for 1 h at rt. After 3 washes with 200 μL of PBS, bound HPA-HRP was quantified by the addition of 100 μL of TMB peroxide solution. The solutions were incubated for 5-15 min in the dark at rt. HRP activity was terminated by the addition of 50 μL of 2 N H2SO4 and the resulting solution was analyzed at 450 nm using a UV/Vis microtiter plate reader. The amount of product generated by the ppGalNAcT was extrapolated from absorbance values using an equation fit to the standard curve derived from Origin 6.1 software.
In order to screen the library in high-throughput format, a non-radioactive enzyme linked lectin assay (ELLA) for ppGalNAcTs was developed. As an acceptor substrate, the EA2 peptide (PTTDSTTPAPTTK; SEQ ID NO:12), a fragment of rat submandibular mucin, was chosen. Albone et al. (1994) J. Biol. Chem. 269:16845-16852. This peptide has been previously shown to be an efficient substrate for murine (m) ppGalNAcT-1 and is preferentially glycosylated at the fourth Thr residue from the N-terminus (underlined). Ten Hagen et al. (2001, supra). Biotinylation of EA2 allowed capture of (glyco)peptides onto 96-well NeutrAvidin-coated plates. The GalNAc-modified glycopeptide product could be detected using the α-GalNAc-specific lectin Helix pomatia agglutinin (HPA) (Hammarstrom et al. (1977) Biochemistry 16:2750-2755) conjugated to horseradish peroxidase (HRP). The bound HRP was quantified by addition of a chromogenic substrate.

Jurkat cells [1] = test: HPA staining of Jurkat cells (Tn-antigen), flow cytometry; format: cell-based, human; settings: Jurkat cells, 2 d treatment
Description: (§1) Jurkat cells were seeded at 250,000 cells/well (determined by Coulter cell counter) in 12-well polystyrene tissue culture plates in 1.0 mL of media and treated with various concentrations of 1-68A or 2-68A from 50 mM dimethyl sulfoxide (DMSO) stock solutions or doxorubicin or campothecin from 1 mM DMSO stock solutions. After 2 d, cells were harvested, washed twice with PBS buffer (PBS, pH 7.4, 0.1% FCS, 0.1% NaN3 w/v) and stained with FITC-HPA (1 μg/mL) or FITC-Con A (5 μg/mL with 1 mM CaCl2) in PBS, pH 7.4 in the dark for 1 h at 4° C. Cells were washed twice with PBS buffer, resuspended in 300 μL of PBS buffer and analyzed by flow cytometry (FacsCaliber, BD Instruments). Annexin-V staining was performed according to the manufacturer's protocols (Invitrogen).
(§2) To directly monitor ppGalNAcT activities in cells, Jurkat cells (human T-cell lymphoma), which are known to produce only the Tn-antigen (FIG. 1) as their O-linked glycans, were chosen. Piller et al. (1990) J. Biol. Chem. 265:9264-9271. Changes in Tn-antigen expression on the surface of Jurkat cells were monitored by HPA binding followed by flow cytometry analysis. Con A staining of N-linked glycans was used as a control for non-specific inhibition of protein glycosylation. Baenziger and Fiete (1979) J. Biol. Chem. 254:2400-2407.

Jurkat cells [2] = test: Con A staining of N-linked glycans on Jurkat cells, flow cytometry; format: cell-based, human; settings: 2 d treatment
Description: as §1, §2

Jurkat cells [3] = test: Annexin-V staining of Jurkat cells (apoptosis); format: cell-based, human; settings: 2 d treatment
Description: as §1, §2

[4] = target: C-terminal biotinylated EA2* glycopeptide 5 (…; SEQ ID NO:17) (rat); test: enzyme-linked lectin assay (ELLA): 15% glycopeptide 5 (9 pmol) on NeutrAvidin plates, detected with HPA-HRP
[5] = target: T2, C-terminal biotinylated EA2 peptide 4 (PTTKDSTTPAPTTKK; SEQ ID NO:16)
T2 chain: PTTKDSTTPAPTTKK

`O=c1ccn([C@@H]2O[C@H](COP(=O)(O)OP(=O)(O)O)[C@@H](O)[C@H]2O)c(=O)[nH]1` [UDP, reference compound] was tested, and the Ki (mppGalNAcT-1; read-out: KI value for the product UDP) was 251 µM and 250 µM.

For `CC[C@@]1(O)C(=O)OCc2c1cc1n(c2=O)Cc2cc3ccccc3nc2-1` [campothecin, reference compound], the “effect on HPA staining” value (Jurkat cells [1]) was “reduced”, the “effect on Con A staining” value (Jurkat cells [2]) was “reduced” and the “Annexin-V staining (induction of apoptosis)” value (Jurkat cells [3]) was “induced Annexin V binding at levels comparable to 1-68A”.

In the case of `COc1cccc2c1C(=O)c1c(O)c3c(c(O)c1C2=O)C[C@@](O)(C(=O)CO)C[C@@H]3O[C@H]1C[C@H](N)[C@H](O)[C@H](C)O1` [doxorubicin, reference compound], the “effect on HPA staining” value (Jurkat cells [1]) is reported as “reduced”, the “effect on Con A staining” value (Jurkat cells [2]) is reported as “reduced” and the “Annexin-V staining (induction of apoptosis)” value (Jurkat cells [3]) is reported as “induced Annexin V binding at levels comparable to 1-68A”.

“EA2 peptide 4: C-terminal biotinylated EA2 peptide (PTTKDSTTPAPTTKK; SEQ ID NO:16), fragment of rat submandibular mucin, acceptor substrate (PTTKDSTTPAPTTKK-biotin) [reference compound]” showed a Km (mppGalNAcT-1) of 48 ± 4 µM.

Work on “Helix pomatia agglutinin (HPA) conjugated to horse radish peroxidase (HPA-HRP)” yielded a signal to noise ratio (fold above background) [4] of 30.

“uridine diphosphate N-acetyl-α-galactosamine [UDP-GalNAc, reference compound]” was tested, and the Km (mppGalNAcT-1) was 13.9 µM and 14 µM.

B1: murine polypeptide N-acetyl-α-galactosaminyltransferase-1 (mppGalNAcT-1) (protein)
chain: GLPAGDVLELVQKPHEGPGEMGKPVVIPKEDQEKMKEMFKINQFNLMASEMIALNRSLPDVRLEGCKTKVYPDNLPTTSVVIVFHNEAWSTLLRTVHSVINRSPRHMIEEIVLVDDASERDFLKRPLESYVKKLKVPVHVIRMEQRSGLIRARLKGAAVSRGQVITFLDAHCECTAGWLEPLLARIKHDRRTVVCPIIDVISDDTFEYMAGSDMTYGGFNWKLNFRWYPVPQREMDRRKGDRTLPVRTPTMAGGLFSIDRDYFQEIGTYDAGMDIWGGENLEISFRIWQCGGTLEIVTCSHVGHVFRKATPYTFPGGTGQIINKNNRRLAEVWMDEFKNFFYIISPGVTKVDYGDISSRLGLRRKLQCKPFSWYLENIYPDSQIPRHYFSLGEIRNVETNQCLDNMARKENEKVGIFNCHGMGGNQVFSYTANKEIRTDDLCLDVSKLNGPVTMLKCHHLKGNQLWEYDPVKLTLQHVNSNQCLDKATEEDSQVPSIRDCTGSRSQQWLLRNVTLPEIF
For B1, the “KM (ELLA enzyme kinetics)” value [5] was 48.0 ± 4.0 µM.
